The values below come from patent US20220251084A1, “PROGRANULIN MODULATORS AND METHODS OF USING THE SAME” (ARKUDA THERAPEUTICS, priority 2019, published 2022).

SMILES strings stand for the structures. Counter-ions that a name gives are not always drawn.

The first experiment relates to progranulin (PGRN) secretion, BV-2 cells. The experiment in a line: PGRN assay: progranulin induction cellular assay (ELISA of secreted mouse PGRN).
Conditions: not given
The experiment is classed as cell-based. On the procedure: Cellular Assays: To measure the efficacy of compounds, a progranulin induction cellular assay in mouse primary microglia (pMG), primary cortical neurons, and BV-2 cell lines is used. BV-2 cells are split the day before plating into a 96 well plate format at approximately 80%. Cells should be plated the day before and allowed for 1 hour attachment period and for 16 hour incubation. […] Standard ELISA kits to measure PGRN are available from vendors such as Adipogen, R&D, and Biovendor.
By EC50 is commonly meant the concentration that produces a half-maximal response. High values mean lower potency in that assay, low ones higher potency in that assay. `CN1CCC([C@H]2c3ccccc3CCN2C(=O)O[C@@H]2CN3CCC2CC3)CC1=O` (stereo partly drawn) [Compound 2024, (S)-quinuclidin-3-yl 1-(1-methyl-2-oxopiperidin-4-yl)-3,4-dihydroisoquinoline-2(1H)-carboxylate]: the EC50 was above 10000 nM.

Compound `O=C(O[C@@H]1CN2CCC1CC2)N1CCc2cccnc2[C@@H]1c1ccc(F)cc1` [Compound 2054, (S)-quinuclidin-3-yl 8-(4-fluorophenyl)-5,6-dihydro-1,7-naphthyridine-7(8H)-carboxylate] had a concentration for a half-maximal effect (EC50) of 4740 nM.

In turn, `O=C(O[C@@H]1CN2CCC1CC2)N1CCc2ccsc2C1c1ccc(F)cc1` (stereo partly drawn) [Compound 2122, (S)-quinuclidin-3-yl 7-(4-fluorophenyl)-4,7-dihydrothieno[2,3-c]pyridine-6(5H)-carboxylate] yielded a half-maximal effective concentration (EC50) of 3280 nM.

Still in this experiment, the particulars now being: Mus musculus, BV-2.
Compound `CNC(=O)c1ccc2c(c1)CCN(C(=O)O[C@@H]1CN3CCC1CC3)[C@@H]2c1ccc(F)cc1` [Compound 2101] had a 50% effective concentration (EC50) above 10000 nM.

In turn, `O=C(OCC12CCN(CC1)CC2)N1CCc2ccccc2[C@@H]1c1ccc(F)cc1` [Compound 2001] yielded an EC50 of 170 nM.

In turn, `COC(=O)c1ccc2c(c1)CCN(C(=O)O[C@@H]1CN3CCC1CC3)[C@@H]2c1ccc(F)cc1` [Compound 2087] yielded a half-maximal effective concentration (EC50) above 10000 nM.

Consider `CNC(=O)c1ccc2c(c1)[C@H](c1ccc(F)cc1)N(C(=O)O[C@@H]1CN3CCC1CC3)CC2` [Compound 2065], for which the 50% effective concentration (EC50) was above 10000 nM.

Compound `C#CCOc1ccc2c(c1)CCN(C(=O)O[C@@H]1CN3CCC1CC3)[C@@H]2c1ccc(F)cc1` [Compound 2083] yielded an EC50 of 6070 nM.

The experiment is the same for the next values; noted with them: Mus musculus, BV-2, PGRN assay, Table C; secreted mouse PGRN in cell culture medium, ELISA.
As for `COc1ncc(COc2ccc([C@@H]3c4ccccc4CCN3C(=O)OCC34CCN(CC3)CC4)cc2)cn1` [Compound 2146], a half-maximal effect (EC50) was put at 1610 nM.

`O=C(CCC1CCNCC1)N1CCc2ccccc2[C@@H]1c1ccc(F)cc1` [Compound 2184, (S)-1-(1-(4-fluorophenyl)-3,4-dihydroisoquinolin-2(1H)-yl)-3-(piperidin-4-yl)propan-1-one] came in with an EC50 above 10000 nM.

Take `CN(CC1CCNCC1)C(=O)N1CCc2ccccc2[C@@H]1c1ccc(F)cc1` [Compound 2182, 1-(4-fluorophenyl)-N-methyl-N-(piperidin-4-ylmethyl)-3,4-dihydroisoquinoline-2(1H)-carboxamide]: the EC50 was above 10000 nM.

In turn, `COC(=O)c1ccc2c(c1)[C@@H](c1ccc(F)cc1)N(C(=O)OCC13CCN(CC1)CC3)CC2` [Compound 2045] came in with an EC50 above 10000 nM.

With `CN1CCC(COC(=O)N2CCc3ccccc3[C@H]2c2cc(F)cc(F)c2)CC1` [Compound 2109], the EC50 is above 10000 nM.

With `O=C(O[C@H]1CCCNC1)N1CCc2ccccc2[C@@H]1c1ccc(F)cc1` (single isomer, unassigned) [Compound 2168], the response was half-maximal at 2540 nM (EC50).

As to `O=C(CCC12CCN(CC1)CC2)N1CCc2ccccc2[C@@H]1c1ccc(F)cc1` [Compound 2037], the EC50 was above 8090 nM.

Compound `O=C(OCC12CCN(CC1)CC2)N1CCc2ccccc2[C@H]1c1ccc(OCc2ncccn2)cc1` [Compound 2156] registered a half-maximal effective concentration (EC50) of 713 nM.

Compound `O=C(OCC12CCN(CC1)CC2)N1CCc2ccccc2[C@@H]1c1ccc(F)c(F)c1` [Compound 2110] gave an EC50 of 7820 nM.

Take `C#CCOCCN1CCC(COC(=O)N2CCc3ccccc3[C@@H]2c2ccc(F)cc2)CC1` [Compound 2196, (1-(2-(prop-2-yn-1-yloxy)ethyl)piperidin-4-yl)methyl (S)-1-(4-fluorophenyl)-3,4-dihydroisoquinoline-2(1H)-carboxylate]: the EC50 was above 10000 nM.

Take `O=C(OCC12CCN(CC1)CC2)N1CCc2ccccc2[C@H]1c1ccc(OCc2cncnc2)cc1` [Compound 2150]: the EC50 turned out to be 9460 nM.

In turn, `O=C(N[C@H]1CCN2CCC[C@H]12)N1CCc2ccccc2[C@@H]1c1ccc(F)cc1` [Compound 2050] displayed a concentration giving a half-maximal response (EC50) of 3900 nM.

`COc1ccc(COc2ccc([C@@H]3c4ccccc4CCN3C(=O)OCC34CCN(CC3)CC4)cc2)cc1` [Compound 2137] came in with a 50% effective concentration (EC50) above 3160 nM.

With `O=C1C[C@@H](COC(=O)N2CCc3ccccc3[C@@H]2c2ccc(F)cc2)CCN1` (single isomer, unassigned) [Compound 2186, (1 S)-(2-oxopiperidin-4-yl)methyl 1-(4-fluorophenyl)-3,4-dihydroisoquinoline-2(1H)-carboxylate], the half-maximal effective concentration (EC50) is above 10000 nM.

In turn, `O=C(OCC12CCN(CC1)CC2)N1CCc2ccccc2[C@@H]1c1ccc(F)cc1F` [Compound 2096] registered a concentration for a half-maximal effect (EC50) of 387 nM.

Consider `CN1CCC(C)(OC(=O)N2CCc3ccccc3[C@@H]2c2ccc(F)cc2)CC1` [Compound 2129], for which the EC50 came to 358 nM.

`O=C(Nc1ccncc1)N1CCc2ccccc2[C@@H]1c1ccc(F)cc1` [Compound 2151] showed an EC50 of 1160 nM.

For the compound `CN1C[C@@H]2CC[C@H](OC(=O)N3CCc4ccccc4[C@@H]3c3ccc(F)cc3)[C@@H]2C1` (relative stereo) [Compound 2062, (1 S)-(rel-(3′aR,6′aS)-2′-methyloctahydrocyclopenta[c]pyrrol-4-yl)-1-(4-fluorophenyl)-3,4-dihydroisoquinoline-2(1H)-carboxylate], the half-maximal effective concentration (EC50) is 1120 nM.

The experiment is the same for the next values; noted with them: Mus musculus, BV-2, PGRN assay, Table D; secreted mouse PGRN in cell culture medium, ELISA.
`O=C(O[C@@H]1CNCCOC1)N1CCc2ccccc2[C@@H]1c1ccc(F)cc1` [Compound 2260] yielded a 50% effective concentration (EC50) of 730 nM.

Take `CN1C[C@H](N(C)C(=O)N2CCc3ccccc3[C@@H]2c2ccc(F)cc2)C(F)(F)C1` [Compound 2299, (S)—N—((S)-4,4-difluoro-1-methylpyrrolidin-3-yl)-1-(4-fluorophenyl)-N-methyl-3,4-dihydroisoquinoline-2(1H)-carboxamide]: the EC50 is above 10000 nM.

Turning to `CN(CC1CNC1)C(=O)N1CCc2ccccc2[C@@H]1c1ccc(F)cc1` [Compound 2283, (S)—N-(azetidin-3-ylmethyl)-1-(4-fluorophenyl)-N-methyl-3,4-dihydroisoquinoline-2(1H)-carboxamide], the half-maximal effective concentration (EC50) is above 10000 nM.

`CC1(C)CNC[C@H]1OC(=O)N1CCc2ccccc2[C@@H]1c1ccc(F)cc1` [Compound 2292] had an EC50 of 431 nM.

On to `CN1CC[C@@H](O)[C@H](O)[C@H]1COC(=O)N1CCc2ccccc2[C@@H]1c1ccc(F)cc1` [Compound 2289, ((2R,3R,4R)-3,4-dihydroxy-1-methylpiperidin-2-yl)methyl (S)-1-(4-fluorophenyl)-3,4-dihydroisoquinoline-2(1H)-carboxylate], for which the EC50 was above 10000 nM.

Regarding `O=C(O[C@H]1C[N@]2CC[C@H]1C2)N1CCc2ccccc2[C@@H]1c1ccc(F)cc1` [Compound 2204], the EC50 came to 650 nM.

In turn, `O=C(NC[C@@H]1CCCN1)N1CCc2ccccc2[C@H]1c1ccc(F)cc1` [Compound 2218] had an EC50 of 3950 nM.

For the compound `O=C(N[C@H]1CNC[C@@H]1F)N1CCc2ccccc2[C@@H]1c1ccc(F)cc1` [Compound 2351, (S)-1-(4-fluorophenyl)-N-((3S,4S)-4-fluoropyrrolidin-3-yl)-3,4-dihydroisoquinoline-2(1H)-carboxamide], the concentration giving a half-maximal response (EC50) turned out to be 130 nM.

The compound `CN(C(=O)N1CCc2ccccc2[C@@H]1c1ccc(F)cc1)[C@@H]1CCNC1` [Compound 2253, 1-(4-fluorophenyl)-N-methyl-((R)-pyrrolin-3-yl)-3,4-dihydroisoquinoline-2(1H)-carboxamide] displayed an EC50 of 110 nM.

Compound `NC[C@@H]1CN(C(=O)N2CCc3ccccc3[C@@H]2c2ccc(F)cc2)CCO1` [Compound 2302, ((R)-2-(aminomethyl)morpholino)((S)-1-(4-fluorophenyl)-3,4-dihydroisoquinolin-2(1H)-yl)methanone] came in with a concentration for a half-maximal effect (EC50) of 160 nM.

Consider `O=C(OCC[C@@H]1CN2CCC1CC2)N1CCc2ccccc2[C@@H]1c1ccc(F)cc1` [Compound 2206, 2-((S)-quinuclidin-3-yl)ethyl (S)-1-(4-fluorophenyl)-3,4-dihydroisoquinoline-2(1H)-carboxylate formate], for which the 50% effective concentration (EC50) is 1990 nM.

The compound `O=C(NCC1(F)CNC1)N1CCc2ccccc2[C@@H]1c1ccc(F)cc1` [Compound 2231] yielded a concentration for a half-maximal effect (EC50) of 1040 nM.

Compound `O=C(OCC1CNC1)N1CCc2ccccc2[C@@H]1c1ccc(F)cc1` [Compound 2246, Azetidin-3-ylmethyl (S)-1-(4-fluorophenyl)-3,4-dihydroisoquinoline-2(1H)-carboxylate 2,2,2-trifluoroacetate] had an EC50 of 770 nM.

For `CNC[C@@H]1CN(C(=O)N2CCc3ccccc3[C@@H]2c2ccc(F)cc2)CCO1` [Compound 2306], the EC50 stood at 129 nM.

For `CN1CCC(C(O)C(=O)N2CCc3ccccc3[C@@H]2c2ccc(F)cc2)C1` (stereo partly drawn) [Compound 2267, 1-((S)-1-(4-fluorophenyl)-3,4-dihydroisoquinolin-2(1H)-yl)-2-hydroxy-2-(1-methylpyrrolidin-3-yl)ethanone], the EC50 is 130 nM.

With `CN1CC(CNC(=O)N2CCc3ccccc3[C@@H]2c2ccc(F)cc2)C1` [Compound 2282], the EC50 is above 10000 nM.

Compound `CN1CCN(C(=O)N2CCc3ccccc3[C@@H]2c2ccc(F)cc2)CC(F)(F)C1` [Compound 2261, (S)-(6,6-difluoro-4-methyl-1,4-diazepan-1-yl)(1-(4-fluorophenyl)-3,4-dihydroisoquinolin-2(1H)-yl)methanone hydrochloride] showed an EC50 above 10000 nM.

For the compound `CC1(C)CNC[C@@H]1NC(=O)N1CCc2ccccc2[C@@H]1c1ccc(F)cc1` [Compound 2268], the EC50 turned out to be 180 nM.

Turning to `O=C(NC[C@H]1CCCNC1)N1CCc2ccccc2[C@@H]1c1ccc(F)cc1` (single isomer, unassigned) [Compound 2220], the 50% effective concentration (EC50) amounted to 5500 nM.

As for `O=C(N[C@H]1CNCC12CC2)N1CCc2ccccc2[C@@H]1c1ccc(F)cc1` [Compound 2280], the half-maximal effective concentration (EC50) amounted to 1180 nM.

The same experiment, now with this note: PGRN assay, Table D; secreted mouse PGRN in cell culture medium, ELISA.
As to `O=C(N[C@H]1CNCCOC1)N1CCc2ccccc2[C@@H]1c1ccc(F)cc1` (single isomer, unassigned) [Compound 2275], a half-maximal response (EC50) required 447 nM.
